The supplement of paper PMC10307832

Legend:
Test in all cases: relative viability (nuclei count vs DMSO), 5 days (fraction); higher = more cells survive
[1] = compound: C1CC(C2=C(C1)C3=C(N2)C=CC(=C3)Cl)C(=O)N [Selisistat] + CS(=O)(=O)N1CCN(Cc2cc3nc(-c4cccc5[nH]ncc45)nc(N4CCOCC4)c3s2)CC1 [Pictilisib] (partner 1 µM)
In short: (§1)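 Values are medians from duplicate plates. Each reflects relative viability, defined as the nuclei count of treated wells over that of vehicle wells. Lung cancer cell lines in 1536-well plates were pin-tool dosed one day after seeding with one drug alone or with a fixed anchor-drug dose plus five library-drug doses (not always all listed) in √10 steps, then fixed, stained and imaged at 4× after 5 days.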

[2] = compound: C1CC(C2=C(C1)C3=C(N2)C=CC(=C3)Cl)C(=O)N [Selisistat] + CS(=O)(=O)CCNCc1ccc(-c2ccc3ncnc(Nc4ccc(OCc5cccc(F)c5)c(Cl)c4)c3c2)o1 [Lapatinib] (partner 2 µM)
In short: as §1

[3] = compound: c1ccc2c(CCNc3ccc(Nc4ccncc4)cc3)c[nH]c2c1 [Serdemetan] + Cc1nc(NC(=O)N2CCC[C@H]2C(N)=O)sc1-c1ccnc(C(C)(C)C(F)(F)F)c1 [Alpelisib] (partner 2 µM)
In short: as §1

[4] = compound: c1ccc2c(CCNc3ccc(Nc4ccncc4)cc3)c[nH]c2c1 [Serdemetan] + CS(=O)(=O)CCNCc1ccc(-c2ccc3ncnc(Nc4ccc(OCc5cccc(F)c5)c(Cl)c4)c3c2)o1 [Lapatinib] (partner 2 µM)
In short: as §1

Cell Line | relative viability ([1]; first compound 0.4 µM) | relative viability ([1]; first compound 1.265 µM) | relative viability ([1]; first compound 4 µM) | relative viability ([1]; first compound 12.65 µM) | relative viability ([1]; first compound 40 µM) | relative viability ([2]; first compound 0.4 µM) | relative viability ([2]; first compound 1.265 µM) | relative viability ([2]; first compound 4 µM) | relative viability ([2]; first compound 12.65 µM) | relative viability ([2]; first compound 40 µM) | relative viability ([3]; first compound 0.04 µM) | relative viability ([3]; first compound 0.1265 µM) | relative viability ([3]; first compound 0.4 µM) | relative viability ([3]; first compound 1.265 µM) | relative viability ([3]; first compound 4 µM) | relative viability ([4]; first compound 0.04 µM) | relative viability ([4]; first compound 0.1265 µM) | relative viability ([4]; first compound 0.4 µM) | relative viability ([4]; first compound 1.265 µM) | relative viability ([4]; first compound 4 µM)
NCI-H2087 | 0.977 | 0.911 | 0.321 | 0.873 | 0.841 | 1 | 1.13 | 0.653 | 0.946 | 1.03 | 1.1 | 0.986 | 1.09 | 0.669 | 0.532 | 1.06 | 0.974 | 1.1 | 0.641 | 0.508
LK-2 | 0.645 | 0.502 | 0.575 | 0.499 | 0.456 | 0.858 | 0.749 | 0.701 | 0.935 | 1.05 | 1.1 | 1.28 | 1.25 | 1.06 | 0.652 | 0.899 | 0.873 | 1.03 | 0.884 | 0.757
NCI-H1437 | 0.48 | 0.439 | 0.202 | 0.503 | 0.455 | 0.801 | 0.758 | 0.341 | 0.71 | 0.776 | 0.936 | 1.01 | 0.896 | 0.807 | 0.802 | 0.846 | 0.752 | 0.679 | 0.76 | 0.634
COR-L23 | 0.821 | 0.78 | 0.899 | 0.701 | 0.689 | 0.969 | 1.03 | 0.959 | 0.935 | 0.799 | 0.788 | 0.767 | 0.763 | 0.821 | 0.703 | 0.916 | 0.924 | 1.03 | 0.422 | 0.78
ABC-1 | 0.782 | 0.895 | 0.728 | 0.758 | 0.773 | 1.03 | 1.12 | 1.19 | 0.924 | 1.24 | 1.16 | 1.14 | 0.965 | 0.812 | 0.486 | 1.08 | 1.07 | 1.25 | – | 0.717
NCI-H838 | 0.48 | 0.514 | 0.39 | 0.489 | 0.446 | 1.09 | 0.965 | 0.627 | 0.966 | 0.958 | 0.994 | 0.953 | 0.995 | 0.962 | 1.13 | 0.9 | 0.986 | 0.9 | 0.86 | 1.01
A549 | 0.605 | 0.478 | 0.525 | 0.55 | 0.449 | 1.05 | 0.937 | 1.12 | 0.974 | 0.95 | 0.753 | 0.722 | 0.727 | 0.569 | 0.252 | 1.06 | 0.916 | 0.901 | 0.953 | 0.455
